A short description of series [1]: Acute toxicity in mice, single intravenous injection. The conditions noted are these: mouse, in vivo.
A further series has as its system L 1210 leukemia. The experiment in a line: Antitumor effect on L 1210 leukemia in mice. The conditions noted are these: i.p., once daily for 10 days from 24 hours after inoculation of 1×10^6 L 1210 cells i.p. The format is in vivo, mice (CDF1). How it is done: For example, when CDF1 mice weighing 18 to 22 grams were inoculated with 1×10^6 cells of L 1210 cells intraperitoneally and the compound was administered intraperitoneally once daily for 10 days consecutively 24 hours after inoculation, the survival time of mice was over 200% by T/C(%) at optimum dose as shown in the following table.

Series [2] concerns RNA synthesis in murine leukemic L 1210 cells. Description: RNA biosynthesis in L 1210 cells (14C-uridine incorporation). The format is cell-based. The conditions noted are these: for IC50: Mus musculus, L1210, 15 min with compound then 60 min 14C-uridine, 37° C.; for Inhibition ratio DNA/RNA: ratio of IC50 for DNA synthesis to IC50 for RNA synthesis. The protocol:
50% growth inhibition concentration of the compound over controls was determined. […] The cells were cultured for 15 min. at 37° C. after the compounds according to the present invention at various concentrations were added, and then ^14 C-uridine (0.05 μCi/ml) or ^14 C-thymidine (0.05 μCi/ml) was added and incubated for further 60 min. at 37° C. After stopping the pulse-labeling by addition of 10% trichloroacetic acid (TCA) solution to the reaction mixture, acid-insoluble materials were precipitated, washed three times with 5 to 10% TCA, and dissolved in a small amount of formic acid.

The subject of series [3] is DNA synthesis in murine leukemic L 1210 cells. The experiment in a line: DNA biosynthesis in L 1210 cells (14C-thymidine incorporation). The conditions noted are these: Mus musculus, L1210, 15 min with compound then 60 min 14C-thymidine, 37° C. It counts as cell-based. How it is done: (§1) In an example, L 1210 cells were inoculated in RPMI (Rosewell Park Memorial Institute) 1640 medium containing 20% calf serum at the cell density of 5×10^4 cells/ml, and the compound in the present invention was simultaneously added to the medium at the concentration of 0.1 and 0.5 μg/ml and incubated at 37° C. in a CO2 incubator. 50% growth inhibition concentration of the compound over controls was determined. L 1210 cells as described above were also inoculated at 5×10^5 cells in RPMI 1640 medium containing 10% calf serum and incubated at 37° C. for 1 to 2 hours in a CO2 incubator. The cells were cultured for 15 min. at 37° C. after the compounds according to the present invention at various concentrations were added, and then ^14 C-uridine (0.05 μCi/ml) or ^14 C-thymidine (0.05 μCi/ml) was added and incubated for further 60 min. at 37° C. After stopping the pulse-labeling by addition of 10% trichloroacetic acid (TCA) solution to the reaction mixture, acid-insoluble materials were precipitated, washed three times with 5 to 10% TCA, and dissolved in a small amount of formic acid. Then, radioactivity was determined, and inhibitory effects on the DNA and RNA biosynthesis were indicated by the 50% inhibition concentration (IC50) of the incorporation of radioactivity over controls.
For orientation: Dividing cells build labelled thymidine or BrdU into new DNA.

For series [4], the system named is murine leukemic L 1210 cells. The experiment in a line: Growth inhibition of L 1210 cells in culture. The format is cell-based. The following applies: for IC50: Mus musculus; for growth of murine leukemic cells (in words): murine leukemic L 1210 cells in culture. The protocol: as §1
Setting [5] is: L1210, L 1210 cells, RPMI 1640, 20% calf serum, 5×10^4 cells/ml, 37° C., read-out: IC50 Growth.

≈ marks a conversion by molar mass, not a printed value. Like-named read-outs stand apart in the source and are kept apart here.

`COc1cccc2c1C(=O)c1c(O)c3c(c(O)c1C2=O)C[C@@](O)(C(=O)CO)C[C@@H]3O[C@H]1C[C@H](N)[C@H](O)[C@H](C)O1` [Adriamycin, reference compound]: the LD50 (commonly the dose at which mortality reaches 50%) in series [1] came out at 14.2 mg/kg. Besides, in the series on L 1210 leukemia (opt. dose 1 mg/kg/day), the “T/C (survival time)” value came out at 286%.
Take `CCC1(O)CC(OC2CC(N(C)C)C(OC3CC(O)C(OC4CCC(=O)C(C)O4)C(C)O3)C(C)O2)c2c(cc3c(c2O)C(=O)c2c(O)ccc(O)c2C3=O)C1O` (stereo not drawn) [β-Pyrromycin RDC]: the IC50 (as a rule, the midpoint of a concentration-inhibition curve) in series [2] is 1.5 µg/mL (≈ 1.91 µM); in series [3], 2 µg/mL (≈ 2.55 µM); in series [4] (setting [5]), 1 µg/mL (≈ 1.27 µM). The “Inhibition ratio DNA/RNA” value in series [2] came out at 1.3. In series [1], this compound yielded an LD50 of 85.5 mg/kg. In the series with L 1210 leukemia (opt. dose 20 mg/kg/day), the “T/C (survival time)” value was 202%.
For the compound `CCC1(O)CC(OC2CC(N(C)C)C(OC3CC(O)C(OC4CCC(=O)C(C)O4)C(C)O3)C(C)O2)c2c(O)c3c(c(O)c2C1O)C(=O)c1cccc(O)c1C3=O` (stereo not drawn) [β-Rhodomycin RDC], the IC50 worked out at 0.15 µg/mL (≈ 0.191 µM) in series [2], 0.57 µg/mL (≈ 0.725 µM) in series [3] and 0.01 µg/mL (≈ 0.0127 µM) in series [4] (setting [5]). In addition, in series [2], the “Inhibition ratio DNA/RNA” value was 3.8. The LD50 in series [1] was 28 mg/kg. The “T/C (survival time)” value in the series on L 1210 leukemia (opt. dose 2 mg/kg/day) is 306%. For the same compound, the “growth of murine leukemic cells (in words)” value (shortened to “growth”) in series [4] was “suppressed the growth of murine leukemic cells at extremely low concentration”.
Take `CCC1(O)CCc2c(O)c3c(c(O)c2C1OC1CC(N(C)C)C(OC2CC(O)C(OC4CCC(=O)C(C)O4)C(C)O2)C(C)O1)C(=O)c1cccc(O)c1C3=O` (stereo not shown) [γ-Rhodomycin RDC]: the figures for the IC50 in series [2], in series [3] and in series [4] (setting [5]) were 0.28 µg/mL (≈ 0.364 µM), 0.85 µg/mL (≈ 1.1 µM) and 0.11 µg/mL (≈ 0.143 µM), respectively. The “Inhibition ratio DNA/RNA” value in series [2] came out at 3.0. The same compound displayed an LD50 in series [1] of 39.8 mg/kg. Also, the “T/C (survival time)” value in the series on L 1210 leukemia (opt. dose 2 mg/kg/day) was found to be 209%.
In the case of `CCC1(O)CCc2c(O)c3c(c(O)c2C1OC1CC(N(C)C)C(OC2CC(O)C(OC4CCC(O)C(C)O4)C(C)O2)C(C)O1)C(=O)c1cccc(O)c1C3=O` (stereo not shown) [γ-Rhodomycin RDRs], the values for the half-maximal inhibitory concentration (IC50) in series [2], in series [3] and in series [4] (setting [5]) were 0.3 µg/mL (≈ 0.389 µM), 0.7 µg/mL (≈ 0.907 µM) and 0.09 µg/mL (≈ 0.117 µM), respectively. In addition, the “Inhibition ratio DNA/RNA” value in series [2] amounted to 2.3. In series [1], this compound yielded an LD50 of 40.6 mg/kg. Besides, the “T/C (survival time)” value in the series on L 1210 leukemia (opt. dose 2 mg/kg/day) is recorded as 203%.
With `CCC1(O)CC(OC2CC(N(C)C)C(OC3CC(O)C(OC4CCC(=O)C(C)O4)C(C)O3)C(C)O2)c2c(O)c3c(c(O)c2C1C(=O)OC)C(=O)c1c(O)ccc(O)c1C3=O` (stereo not shown) [ε-Isorhodomycin RDC], in series [2], the “RNA synthesis of L 1210 cells (in words)” value is reported as “inhibited specifically RNA synthesis of L 1210 cells”, the IC50 worked out at 0.11 µg/mL (≈ 0.13 µM) and the “Inhibition ratio DNA/RNA” value is 11.1. The compound also displayed an LD50 in series [1] of 28.2 mg/kg. Also, the IC50 in series [3] was found to be 1.25 µg/mL (≈ 1.48 µM). For the same compound, in the series on L 1210 leukemia (opt. dose 2 mg/kg/day), the “T/C (survival time)” value was 235%. In addition, the IC50 in series [4] (L1210, read-out: IC50 Growth) stood at 0.007 µg/mL (≈ 0.0083 µM). Besides, the “growth” value in series [4] is “suppressed the growth of murine leukemic cells at extremely low concentration”.
For the compound `CCC1(O)CC(OC2CC(N(C)C)C(OC3CC(O)C(OC4CCC(=O)C(C)O4)C(C)O3)C(C)O2)c2c(O)c3c(c(O)c2C1C(=O)OC)C(=O)c1cccc(O)c1C3=O` (stereo not shown) [ε-Rhodomycin RDC], in series [2], the “RNA synthesis of L 1210 cells (in words)” value is recorded as “inhibited specifically RNA synthesis of L 1210 cells”. Besides, the IC50 was 0.08 µg/mL (≈ 0.0966 µM) in series [2]; 0.7 µg/mL (≈ 0.846 µM) in series [3]; 0.01 µg/mL (≈ 0.0121 µM) in series [4] (L1210, read-out: IC50 Growth). The “Inhibition ratio DNA/RNA” value in series [2] amounted to 8.8. In series [1], this compound yielded a median lethal dose (LD50) of 32.5 mg/kg. Also, the “T/C (survival time)” value in the series on L 1210 leukemia (opt. dose 2 mg/kg/day) is 240%. The “growth” value in series [4] was “suppressed the growth of murine leukemic cells at extremely low concentration”.

(Values after patent US4316011A, “Rhodomycin antibiotics” (Sanraku-Ocean Co., Ltd., priority 1979, dated 1982).)
